The term inhibition denotes the relative decrease from the control value, in per cent.

The text below walks through data of patent US10787462B2, “Heterocyclic compound” (TAKEDA PHARMACEUTICAL COMPANY LIMITED, priority 2015, dated 2020).

This assay addresses T1, human RIPK1 (1-375) (Homo sapiens, UniProt Q13546).
T1 construct: human RIPK1 (1-375) gene; GST; made in house; host or cells: Sf-9 insect cells
T1 sequence (Q13546 1-375): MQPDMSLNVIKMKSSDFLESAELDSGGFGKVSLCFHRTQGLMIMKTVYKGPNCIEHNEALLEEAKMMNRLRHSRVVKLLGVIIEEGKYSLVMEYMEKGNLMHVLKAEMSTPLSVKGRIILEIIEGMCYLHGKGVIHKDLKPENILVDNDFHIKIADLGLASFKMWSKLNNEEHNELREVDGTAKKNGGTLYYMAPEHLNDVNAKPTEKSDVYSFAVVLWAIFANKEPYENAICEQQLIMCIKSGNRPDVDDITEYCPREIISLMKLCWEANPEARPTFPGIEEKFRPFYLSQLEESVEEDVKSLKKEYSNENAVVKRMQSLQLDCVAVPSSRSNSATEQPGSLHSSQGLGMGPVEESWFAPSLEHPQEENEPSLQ
The assay can be described thus: Human RIPK1 enzyme inhibitory effect (ADP-Glo Kinase Assay). Particulars: well without enzyme = 100% inhibition; for inhibition at 10 µM: read-out: human RIPK1 enzyme inhibitory effect at 10 μM (% inhibition), 10 μM test compound; for human RIPK1 enzyme inhibitory effect at 10 μM (% inhibition): 10 μM test compound. Type of assay: biochemical. A digest of the protocol:
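ADP-Glo luminescence read-out of ADP formed over 120 min at room temperature after adding 0.6 mM ATP solution (stock concentration). Compound and Sf-9-expressed, GST-purified RIPK1 (1-375) were first incubated together for 20 min in HEPES pH 7.5 buffer with MgCl2, Tween-20 and DTT.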

Consider `CN1C(=O)[C@@H](N2CCc3cn(Cc4ccccc4Cl)nc3C2=O)COc2ccccc21` [Example 25, (3S)-3-(2-(2-ohlorobenzy)-7-oxo-2,4,5,7-tetrahydro-6H-pyrazolo[3,4-c]pyridin-6-yl)-5-methyl-2,3-dihydro-1,5-benzoxazepin-4(5H)-one], for which the inhibition at 10 µM worked out at 100%.

With `CN1C(=O)C(N2CCc3c(nn(Cc4ccccc4)c3Cl)C2=O)CCc2cnccc21` (stereo not shown) [Example 98, 3-(2-benzyl-3-chloro-7-oxo-2,4,5,7-tetrahydro-6H-pyrazolo[3,4-c]pyridin-6-yl)-1-methyl-1,3,4,5-tetrahydro-2H-pyrido[4,3-b]azepin-2-one], the inhibition at 10 µM worked out at 98%.

With `CN1C(=O)[C@@H](N2CCc3cn(Cc4c(F)cccc4F)nc3C2=O)COc2cc(C#N)ccc21` [Example 45, (3S)-3-(2-(2,6-difluorobenzyl)-7-oxo-2,4,5,7-tetrahydro-6H-pyrazolo[3,4-c]pyridin-6-yl)-5-methyl-4-oxo-2,3,4,5-tetrahydro-1,5-benzoxazepine-8-carbonitrile], the inhibition at 10 µM worked out at 101%. For `CN1C(=O)[C@@H](N2CCc3c(nn(Cc4ccccc4)c3Cl)C2=O)COc2cc(C(=O)NCCOCCOCCOCCNC(=O)c3ccc4c(c3)OC[C@H](N3CCc5c(nn(Cc6ccccc6)c5Cl)C3=O)C(=O)N4C)ccc21` [Example 174, (3S)-3-(2-benzyl-3-chloro-7-oxo-2,4,5,7-tetrahydro-6H-pyrazolo[3,4-c]pyridin-6-yl)-N-(13-((3S)-3-(2-benzyl-3-chloro-7-oxo-2,4,5,7-tetrahydro-6H-pyrazolo[3,4-c]pyridin-6-yl)-5-methyl-4-oxo-2,3,4,5-tetrahydro-1,5-benzoxazepin-8-yl)-13-oxo-3,6,9-trioxa-12-azatridec-1-yl)-5-methyl-4-oxo-2,3,4,5-tetrahydro-1,5-benzoxazepine-8-carboxamide], the inhibition at 10 µM is 101%. For the compound `CN1C(=O)[C@@H](N2CCc3c(nn(Cc4ccccc4)c3Cl)C2=O)COc2cc(-c3ccn(C)n3)ccc21` [Example 108, (3S)-3-(2-benzyl-3-chloro-7-oxo-2,4,5,7-tetrahydro-6H-pyrazolo[3,4-c]pyridin-6-yl)-5-methyl-8-(1-methyl-1H-pyrazol-3-yl)-2,3-dihydro-1,5-benzoxazepin-4(5H)-one], the inhibition at 10 µM was found to be 100%. `CN1C(=O)[C@@H](N2CCc3cn(Cc4cc(C#N)ccc4F)nc3C2=O)COc2ccccc21` [Example 172, 4-fluoro-3-((6-((3S)-5-methyl-4-oxo-2,3,4,5-tetrahydro-1,5-benzoxazepin-3-yl)-7-oxo-4,5,6,7-tetrahydro-2H-pyrazolo[3,4-c]pyridin-2-yl)methyl)benzonitrile]: the inhibition at 10 µM worked out at 99%. Consider `CN1C(=O)C(N2CCc3c(nn(Cc4ccccc4)c3Cl)C2=O)CCc2ncccc21` (stereo not drawn) [Example 67, 7-(2-benzyl-3-chloro-7-oxo-2,4,5,7-tetrahydro-6H-pyrazolo[3,4-c]pyridin-6-yl)-5-methyl-5,7,8,9-tetrahydro-6H-pyrido[3,2-b]azepin-6-one (optical isomer)], for which the “human RIPK1 enzyme inhibitory effect at 10 μM (% inhibition)” value is recorded as 73%. For `Cc1c2c(nn1Cc1ccccc1)C(=O)N([C@H]1COc3ccc(C#N)cc3N(C)C1=O)CC2` [Example 85, (3S)-3-(2-benzyl-3-methyl-7-oxo-2,4,5,7-tetrahydro-6H-pyrazolo[3,4-c]pyridin-6-yl)-5-methyl-4-oxo-2,3,4,5-tetrahydro-1,5-benzoxazepine-7-carbonitrile], the inhibition at 10 µM turned out to be 101%. Turning to `CN1C(=O)C(N2CCc3c(nn(Cc4ccccc4F)c3Cl)C2=O)CCc2cnccc21` (stereo not shown) [Example 106, 3-(3-chloro-2-(2-fluorobenzyl)-7-oxo-2,4,5,7-tetrahydro-6H-pyrazolo[3,4-c]pyridin-6-yl)-1-methyl-1,3,4,5-tetrahydro-2H-pyrido[4,3-b]azepin-2-one], the “human RIPK1 enzyme inhibitory effect at 10 μM (% inhibition)” value is listed as 95%. Turning to `Cc1c2c(nn1Cc1ccccc1F)C(=O)N([C@H]1COc3cc(C#N)ccc3N(C)C1=O)CC2` [Example 112, (3S)-3-(2-(2-fluorobenzyl)-3-methyl-7-oxo-2,4,5,7-tetrahydro-6H-pyrazolo[3,4-c]pyridin-6-yl)-5-methyl-4-oxo-2,3,4,5-tetrahydro-1,5-benzoxazepine-8-carbonitrile], the inhibition at 10 µM was found to be 100%. Still for that read-out and setting: the figure for `CN1C(=O)[C@@H](N2CCc3cn(Cc4ccoc4)nc3C2=O)COc2ccccc21` [Example 34, (3S)-3-(2-(3-furylmethyl)-7-oxo-2,4,5,7-tetrahydro-6H-pyrazolo[3,4-c]pyridin-6-yl)-5-methyl-2,3-dihydro-1,5-benzoxazepin-4(5H)-L-one] is 99%; for `CCOC(=O)c1c2c(nn1Cc1ccccc1)C(=O)N([C@H]1COc3ccccc3N(C)C1=O)CC2` [Example 51, ethyl 2-benzyl-6-((3S)-5-methyl-4-oxo-2,3,4,5-tetrahydro-1,5-benzoxazepin-3-yl)-7-oxo-4,5,6,7-tetrahydro-2H-pyrazolo[3,4-c]pyridine-3-carboxylate] it is 99%; for `COc1ccc(Cn2c(Cc3ccccc3)nc3c2CCN([C@H]2COc4ccccc4N(C)C2=O)C3=O)cc1` [Example 54, (3S)-3-(2-benzyl-1-(4-methoxybenzyl)-4-oxo-1,4,6,7-tetrahydro-5H-imidazo[4,5-c]pyridin-5-yl)-5-methyl-2,3-dihydro-1,5-benzoxazepin-4(5H)-one] it is 93%. On to `CN1C(=O)[C@@H](N2CCc3cn(CCc4ccccc4)nc3C2=O)COc2ccccc21` [Example 23, (3S)-5-methyl-3-(7-oxo-2-(2-phenylethyl)-2,4,5,7-tetrahydro-6H-pyrazolo[3,4-c]pyridin-6-yl)-2,3-dihydro-1,5-benzoxazepin-4(5H)-one], for which the inhibition at 10 µM amounted to 91%. As for `CN1C(=O)C(N2CCc3c(nn(Cc4ccccc4)c3Cl)C2=O)CCc2ccncc21` (stereo not shown) [Example 102, 3-(2-benzyl-3-chloro-7-oxo-2,4,5,7-tetrahydro-6H-pyrazolo[3,4-c]pyridin-6-yl)-1-methyl-1,3,4,5-tetrahydro-2H-pyrido[3,4-b]azepin-2-one], the “human RIPK1 enzyme inhibitory effect at 10 μM (% inhibition)” value amounted to 88%.

As to `CNC(=O)c1ccc2c(c1)OC[C@H](N1CCc3cn(Cc4ccccc4F)nc3C1=O)C(=O)N2C` [Example 117, (3S)-3-(2-(2-fluorobenzyl)-7-oxo-2,4,5,7-tetrahydro-6H-pyrazolo[3,4-c]pyridin-6-yl)-N,5-dimethyl-4-oxo-2,3,4,5-tetrahydro-1,5-benzoxazepine-8-carboxamide], the inhibition at 10 µM worked out at 101%. For the compound `CN1C(=O)[C@@H](N2CCc3c(nn(Cc4cnccn4)c3Cl)C2=O)COc2cc(F)ccc21` [Example 75, (3S)-3-(3-chloro-7-oxo-2-(pyrazin-2-ylmethyl)-2,4,5,7-tetrahydro-6H-pyrazolo[3,4-c]pyridin-6-yl)-8-fluoro-5-methyl-2,3-dihydro-1,5-benzoxazepin-4(5H)-one], the inhibition at 10 µM came out at 101%.

`CN1C(=O)C(N2CCc3c(nn(Cc4c(F)cccc4F)c3Cl)C2=O)CCc2c1cnn2C` (stereo not shown) [Example 134, 6-(3-chloro-2-(2,6-difluorobenzyl)-7-oxo-2,4,5,7-tetrahydro-6H-pyrazolo[3,4-c]pyridin-6-yl)-1,4-dimethyl-4,6,7,8-tetrahydropyrazolo[4,3-b]azepin-5(1H)-one]: the “human RIPK1 enzyme inhibitory effect at 10 μM (% inhibition)” value was determined as 93%. In the case of `Cc1ccccc1Cn1cc2c(n1)C(=O)N([C@H]1COc3ccccc3N(C)C1=O)CC2` [Example 22, (3S)-5-methyl-3-(2-(2-methylbenzyl)-7-oxo-2,4,5,7-tetrahydro-6 H-pyrazolo[3,4-c]pyridin-6-yl)-2,3-dihydro-1,5-benzoxazepin-4(5H)-one], the inhibition at 10 µM stood at 100%.
